The source of these data is publication PMC10572522, “A Designed Analog of an Antimicrobial Peptide, Crabrolin, Exhibits Enhanced Anti-Proliferative and In Vivo Antimicrobial Activity” (International Journal of Molecular Sciences, 2023).

Each structure is given as a SMILES string. Residues, ends and D or L forms follow the SMILES beside them.

In one series the test system is S. aureus (NCTC 10788). The series can be described thus: Antimicrobial susceptibility assay (MIC/MBC). The class given is cell-based, Staphylococcus aureus. To be noted: for MIC: MHB, 37 °C, 20 h. The method, then:
(§1) Six bacteria were tested in this experiment to detect the antimicrobial effects of crabrolin and its derivatives, including S. aureus (NCTC 10788), MRSA (NCTC 12493), E. coli (ATCC 8739), K. pneumoniae (ATCC 43816), E. faecium (NTCC-12697), and P. aeruginosa (ATCC 9027). The tested bacteria were cultured in Mueller Hinton broth medium (MHB) with norfloxacin (20 mg/L) as a positive control. All bacteria were incubated at 37 °C overnight and diluted to 5 × 10^5 CFU/mL before treating with the peptides. Stock solutions of 51,200 µM peptides were prepared in phosphate-buffered saline (PBS) and further diluted by a factor of two to 100 µM. Next, 1 µL of each peptide solution was mixed with 99 µL of bacterial subculture in a 96-well plate, and the plate was incubated at 37 °C for 20 h. After culturing, the absorbance of each well in the 96-well plate was analyzed at 550 nm using a Synergy HT plate reader (BioliseBioTek, Winooski, VT, USA). […] Starting with the MIC value, 10 µL of the solution from each well was dripped onto Mueller Hinton agar (MHA) plates. The plates were cultured at 37 °C for 20 h. After culturing, the lowest concentration with no colony growth was regarded as the MBC.

Another series deals with MRSA (NCTC 12493). The series can be described thus: Antimicrobial susceptibility assay (MIC/MBC). In kind it is cell-based, methicillin-resistant Staphylococcus aureus. As to conditions: for MIC: MHB, 37 °C, 20 h. The method, then:
as §1

In series [1] the test system is K. pneumoniae (ATCC 43816). The series can be described thus: Antimicrobial susceptibility assay (MIC/MBC). The class given is cell-based, Klebsiella pneumoniae. As to conditions: for MIC: MHB, 37 °C, 20 h. Here is the method:
as §1

The next series relates to E. faecium (NTCC 12697). Briefly: Antimicrobial susceptibility assay (MIC/MBC). In kind it is cell-based, Enterococcus faecium. To be noted: for MIC: MHB, 37 °C, 20 h. Here is the method:
as §1

Series [2] deals with P. aeruginosa (ATCC 9027). Briefly: Antimicrobial susceptibility assay (MIC/MBC). The class given is cell-based, Pseudomonas aeruginosa. To be noted: for MIC: MHB, 37 °C, 20 h. Here is the method:
as §1

The test system of series [3] is P. aeruginosa (ATCC 9027) biofilm. In kind it is cell-based, Pseudomonas aeruginosa. As to conditions: for MBIC: biofilm inhibitory rate more than 90%; for MBEC: eradication rate greater than 99.9%. Here is the method:
To measure the antibiofilm activity of crabrolin and its derivatives, four drug-resistant biofilm-forming strains, MRSA (NCTC 12493), K. pneumoniae (ATCC 43816), E. faecium (NTCC-12697), and P. aeruginosa (ATCC 9027), were used in this assay. Tryptic soy broth (TSB) (for the Gram-positive bacteria) and Luria–Bertani broth (LB) (for the Gram-negative bacteria) were used to culture the bacteria.
The mass of the biofilm in this assay was detected by the crystal violet staining method. First, 100 μL of 5 × 10^5 CFU/mL bacteria was incubated with 1 μL of different peptide solutions (ranging from 51200 μM to 100 μM) for 24 h at 37 °C with 200 rpm shaking. After the biofilm formation, 100 μL of PBS was used to rinse the biofilm twice. Next, 100 µL of methanol was added to fix the biofilm, and the biofilm was then dried. Thereafter, 100 μL of 0.1% crystal violet was added and left to stain for 15 min, and then the excess crystal violet was further rinsed by PBS. After the plate had air-dried, 30% glacial acetic acid was added to each well of the plate, and the plate was shaken for 15 min before the optical density (OD) value was measured at 595 nm using a Synergy HT plate reader. The MBIC value refers to the minimum concentration at which the biofilm inhibitory rate was more than 90%.
Different from measuring the MBIC value, to determine the MBEC value, 100 μL of the bacteria was first added to 96-well plates. After the biofilm was formed, the biofilm was rinsed with PBS twice to remove the planktonic cells, and then different concentrations of the drugs were added to the biofilm (the same as the MBIC assay). The mixture was incubated at 37 °C with shaking at 200 rpm. After 24 h of incubation, the mass of the biofilm was measured in the same way as the MBIC value, and the minimum concentration at which the eradication rate was greater than 99.9% was considered to be the MBEC value.

A short description of another series: Hemolysis assay. To be noted: horse, erythrocytes (2% suspension); for hemolysis at 2 h: at the peptide's maximum MIC, relative to Triton X-100, read-out: Hemolysis under the Maximum MIC. In kind it is cell-based, horse. Here is the method: (§2) According to the procedures described in detail in a previous study, the debris and impurities of the erythrocytes were washed with PBS in advance to yield 2% of the erythrocyte suspension, and the drug concentration was diluted from 1024 µM to 2 µM with PBS [53]. The same amounts of the drug and the erythrocyte suspension were mixed and cultured at 37 °C for 2 h; 0.1% Triton X-100 (Sigma-Aldrich, St. Louis, MO, USA) was prepared as a positive control, and PBS was prepared as a negative control. After the incubation, the supernatant was transferred to a 96-well plate and then detected using a Synergy HT plate reader at 570 nm.

For another series, the system named is horse erythrocytes. Briefly: Hemolysis assay. To be noted: for HC10 (10% hemolytic concentration) / HC50 (50% hemolytic concentration): erythrocytes, 37 °C, 2 h. In kind it is cell-based. Here is the method: as §2
The test system of series [4] is Galleria mellonella larvae. The series can be described thus: Toxicity to Galleria mellonella larvae without infection. The class given is in vivo. As to conditions: highest dose (50 mg/kg).

For `CC[C@H](C)[C@H](NC(=O)[C@H](CC(C)C)NC(=O)[C@@H]1CCCN1C(=O)[C@H](CC(C)C)NC(=O)[C@@H](N)Cc1ccccc1)C(=O)N[C@@H](CC(C)C)C(=O)N[C@@H](CCCNC(=N)N)C(=O)N[C@@H](CCCCN)C(=O)N[C@H](C(=O)N[C@H](C(=O)N[C@H](C(=O)N[C@@H](C)C(=O)N[C@@H](CC(C)C)C(N)=O)[C@@H](C)O)C(C)C)[C@@H](C)CC` [Crabrolin, FLPLILRKIVTAL-NH2] (H-FLPLILRKIVTAL-NH2), the minimum bactericidal concentration (MBC) is listed as 4 µM with S. aureus (NCTC 10788); 8 µM with MRSA (NCTC 12493); 128 µM in series [1]; 64 µM with E. faecium (NTCC 12697); 256 µM in [2]. For the same molecule, the minimum inhibitory concentration (MIC) with S. aureus (NCTC 10788) was determined as 2 µM; in the series with MRSA (NCTC 12493), 4 µM; with MRSA (NCTC 12493) (listed as crabrolin), 8 µM; in series [1] it was 64 µM; in the series on E. faecium (NTCC 12697), 16 µM; in series [2], 128 µM. Further, in series [3], the MBIC is reported as 128 µM. Moreover, the MBEC in series [3] is 512 µM. For the same molecule, in the series “Hemolysis assay”, the hemolysis at 2 h worked out at 53.5%. In addition, the Hemolytic activity in the series on horse erythrocytes (256 µM) worked out at 100%. For the same molecule, the “HC10 (10% hemolytic concentration)” value with horse erythrocytes stood at 34.575 µM. Besides, in the series on horse erythrocytes, the “HC50 (50% hemolytic concentration)” value was 120.654 µM. Also, the “Death of healthy larvae” value in series [4] is listed as “did not result in the death of healthy larvae”.

As for `CC[C@H](C)[C@H](NC(=O)[C@H](CCCNC(=N)N)NC(=O)[C@@H]1CCCN1C(=O)[C@H](CC(C)C)NC(=O)[C@@H](N)Cc1ccccc1)C(=O)N[C@@H](CC(C)C)C(=O)N[C@@H](CCCNC(=N)N)C(=O)N[C@@H](CCCCN)C(=O)N[C@H](C(=O)N[C@H](C(=O)N[C@@H](CCCNC(=N)N)C(=O)N[C@@H](C)C(=O)N[C@@H](CC(C)C)C(N)=O)C(C)C)[C@@H](C)CC` [Crabrolin-TR, FLPRILRKIVRAL-NH2] (H-FLPRILRKIVRAL-NH2), the minimum bactericidal concentration (MBC) in the series with S. aureus (NCTC 10788) stood at 2 µM; in the series with MRSA (NCTC 12493) it was 2 µM; in [1], 8 µM; with E. faecium (NTCC 12697), 8 µM; in [2], 8 µM. Moreover, the MIC in the series on S. aureus (NCTC 10788) stood at 1 µM; with MRSA (NCTC 12493), 2 µM; in series [1], 8 µM; in the series on E. faecium (NTCC 12697), 4 µM; in series [2], 4 µM. Moreover, in series [3], the MBIC amounted to 8 µM. In series [3], the MBEC stood at 256 µM. Besides, the hemolysis at 2 h, 100 µM in “Hemolysis assay” (100 μM) was around 50%. Further, in the series “Hemolysis assay”, the hemolysis at 2 h is 3.76%. For the same molecule, the Hemolysis entry in the series with horse erythrocytes (8 μM) is listed as “neither crabrolin-TR nor crabrolin21 caused hemolysis”. Moreover, the “HC10 (10% hemolytic concentration)” value in the series with horse erythrocytes was found to be 36.041 µM. Further, in the series with horse erythrocytes, the “HC50 (50% hemolytic concentration)” value is 211.927 µM. The “Death of healthy larvae” value in series [4] was “did not result in the death of healthy larvae”.

Broadly, the MBC is the lowest tested concentration that kills the bacteria rather than only halting them. Usually MIC stands for the smallest concentration in the dilution series that meets the test's criterion for growth inhibition.
